Measurements: article PMC6757289, “Design and Characterization of SGK3-PROTAC1, an Isoform Specific SGK3 Kinase PROTAC Degrader” (ACS Chemical Biology, 2019)
Where two headings read alike, the source gives them in different places.

Legend:
Experiment in all cases: kinase profiling panel
Format in all cases: biochemical
Details in all cases: read-out: % Activity Remaining
MLK1 = MLK1 (Homo sapiens, UniProt P80192)
Text: (§1) Protein kinase profiling against a Dundee panel of 140 protein kinases was undertaken at the International Centre for Protein Kinase Profiling. The result for each kinase was presented as a mean kinase activity of the reaction taken in triplicate relative to a control sample treated with DMSO. Assay conditions and abbreviations are available at http://www.kinase-screen.mrc.ac.uk.

HIPK2 = HIPK2 (Homo sapiens, UniProt Q9H2X6)
HIPK2, sequence (Q9H2X6 whole entry): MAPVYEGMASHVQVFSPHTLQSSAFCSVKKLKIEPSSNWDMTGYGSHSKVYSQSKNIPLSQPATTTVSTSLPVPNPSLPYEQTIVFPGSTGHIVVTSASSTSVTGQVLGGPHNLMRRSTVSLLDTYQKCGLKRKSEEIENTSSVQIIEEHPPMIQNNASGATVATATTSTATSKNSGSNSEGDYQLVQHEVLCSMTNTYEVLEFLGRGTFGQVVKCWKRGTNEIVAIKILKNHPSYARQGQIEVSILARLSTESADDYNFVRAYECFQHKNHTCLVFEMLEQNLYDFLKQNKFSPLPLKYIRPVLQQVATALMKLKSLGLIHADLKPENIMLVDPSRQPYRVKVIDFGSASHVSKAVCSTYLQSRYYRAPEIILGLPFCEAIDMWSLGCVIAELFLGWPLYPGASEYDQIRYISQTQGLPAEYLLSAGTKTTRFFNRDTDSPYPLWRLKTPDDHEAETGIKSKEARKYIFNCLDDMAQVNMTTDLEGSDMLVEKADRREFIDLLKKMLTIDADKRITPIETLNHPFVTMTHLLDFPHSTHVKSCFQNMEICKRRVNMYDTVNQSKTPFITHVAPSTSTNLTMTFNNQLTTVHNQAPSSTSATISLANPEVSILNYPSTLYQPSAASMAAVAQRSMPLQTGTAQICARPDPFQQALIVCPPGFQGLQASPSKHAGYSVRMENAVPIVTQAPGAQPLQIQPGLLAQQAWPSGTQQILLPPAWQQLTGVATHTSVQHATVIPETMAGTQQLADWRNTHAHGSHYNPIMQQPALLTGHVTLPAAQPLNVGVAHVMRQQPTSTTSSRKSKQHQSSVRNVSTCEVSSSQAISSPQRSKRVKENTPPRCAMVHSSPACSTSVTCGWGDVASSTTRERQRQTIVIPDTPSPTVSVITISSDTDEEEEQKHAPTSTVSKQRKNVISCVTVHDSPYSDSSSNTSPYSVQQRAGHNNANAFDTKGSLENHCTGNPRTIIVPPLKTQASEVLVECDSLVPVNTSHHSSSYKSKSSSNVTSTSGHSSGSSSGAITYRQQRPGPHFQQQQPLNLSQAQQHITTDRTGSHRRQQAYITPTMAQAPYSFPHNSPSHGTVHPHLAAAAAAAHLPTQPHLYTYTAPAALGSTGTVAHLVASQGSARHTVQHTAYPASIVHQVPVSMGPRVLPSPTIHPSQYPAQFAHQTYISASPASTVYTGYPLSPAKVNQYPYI
Text: as §1

p38 beta MAPK = p38 beta MAPK (Homo sapiens, UniProt Q15759)
p38 beta MAPK, sequence (Q15759 whole entry): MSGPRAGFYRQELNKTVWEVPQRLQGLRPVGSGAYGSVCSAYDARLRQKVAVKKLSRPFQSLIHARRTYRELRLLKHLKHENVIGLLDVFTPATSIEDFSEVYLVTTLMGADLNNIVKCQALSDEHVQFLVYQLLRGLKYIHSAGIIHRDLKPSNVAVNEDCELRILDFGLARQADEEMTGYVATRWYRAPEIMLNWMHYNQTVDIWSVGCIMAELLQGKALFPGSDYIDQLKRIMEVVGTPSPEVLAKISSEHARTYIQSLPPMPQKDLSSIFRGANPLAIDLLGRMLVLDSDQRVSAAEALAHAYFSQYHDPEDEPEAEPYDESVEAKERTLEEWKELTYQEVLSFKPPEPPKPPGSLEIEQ
Text: as §1

DAPK1 = DAPK1 (Homo sapiens, UniProt P53355)
Text: as §1

MST2 = biological target: T1, MST2 (Homo sapiens, UniProt Q13188)
T1 sequence (Q13188 1-491): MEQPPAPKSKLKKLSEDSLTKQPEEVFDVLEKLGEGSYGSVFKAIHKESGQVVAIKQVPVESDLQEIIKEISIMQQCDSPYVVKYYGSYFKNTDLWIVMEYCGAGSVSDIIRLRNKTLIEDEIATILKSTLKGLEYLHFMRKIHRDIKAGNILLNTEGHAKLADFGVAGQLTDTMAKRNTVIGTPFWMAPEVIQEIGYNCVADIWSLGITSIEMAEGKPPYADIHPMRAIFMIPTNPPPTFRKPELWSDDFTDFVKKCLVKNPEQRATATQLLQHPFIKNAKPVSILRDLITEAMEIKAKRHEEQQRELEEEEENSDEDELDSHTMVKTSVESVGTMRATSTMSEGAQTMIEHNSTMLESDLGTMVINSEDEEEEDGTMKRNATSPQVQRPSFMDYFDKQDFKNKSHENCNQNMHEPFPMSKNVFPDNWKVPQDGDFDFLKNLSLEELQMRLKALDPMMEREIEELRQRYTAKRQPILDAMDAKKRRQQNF
Text: as §1

MAP4K3 = biological target: T2, MAP4K3 (Homo sapiens, UniProt Q8IVH8)
T2 sequence (Q8IVH8 1-894): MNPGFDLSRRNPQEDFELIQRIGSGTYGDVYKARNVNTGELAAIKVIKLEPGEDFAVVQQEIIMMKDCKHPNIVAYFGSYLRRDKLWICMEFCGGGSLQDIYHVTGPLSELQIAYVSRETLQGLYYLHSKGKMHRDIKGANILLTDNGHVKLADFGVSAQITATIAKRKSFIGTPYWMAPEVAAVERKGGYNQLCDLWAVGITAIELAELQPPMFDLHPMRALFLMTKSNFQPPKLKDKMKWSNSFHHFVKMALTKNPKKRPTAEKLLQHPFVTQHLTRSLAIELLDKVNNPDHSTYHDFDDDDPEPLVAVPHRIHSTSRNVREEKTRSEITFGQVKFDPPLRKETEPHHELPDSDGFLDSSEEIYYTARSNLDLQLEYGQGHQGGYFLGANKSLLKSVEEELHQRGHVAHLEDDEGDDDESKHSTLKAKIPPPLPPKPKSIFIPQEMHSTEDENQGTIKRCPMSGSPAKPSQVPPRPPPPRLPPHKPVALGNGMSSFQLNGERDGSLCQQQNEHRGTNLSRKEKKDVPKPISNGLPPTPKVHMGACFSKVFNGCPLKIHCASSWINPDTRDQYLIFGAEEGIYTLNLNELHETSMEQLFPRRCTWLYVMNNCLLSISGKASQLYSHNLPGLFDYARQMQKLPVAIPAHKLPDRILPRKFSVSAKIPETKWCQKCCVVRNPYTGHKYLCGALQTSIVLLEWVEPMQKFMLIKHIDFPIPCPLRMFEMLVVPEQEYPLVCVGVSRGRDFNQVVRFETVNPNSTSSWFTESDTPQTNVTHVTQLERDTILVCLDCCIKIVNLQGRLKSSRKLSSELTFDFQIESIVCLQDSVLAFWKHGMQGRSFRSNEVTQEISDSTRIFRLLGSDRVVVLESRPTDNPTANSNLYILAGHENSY
Text: as §1

NEK6 = NEK6 (Homo sapiens, UniProt Q9HC98)
NEK6, sequence (Q9HC98 whole entry): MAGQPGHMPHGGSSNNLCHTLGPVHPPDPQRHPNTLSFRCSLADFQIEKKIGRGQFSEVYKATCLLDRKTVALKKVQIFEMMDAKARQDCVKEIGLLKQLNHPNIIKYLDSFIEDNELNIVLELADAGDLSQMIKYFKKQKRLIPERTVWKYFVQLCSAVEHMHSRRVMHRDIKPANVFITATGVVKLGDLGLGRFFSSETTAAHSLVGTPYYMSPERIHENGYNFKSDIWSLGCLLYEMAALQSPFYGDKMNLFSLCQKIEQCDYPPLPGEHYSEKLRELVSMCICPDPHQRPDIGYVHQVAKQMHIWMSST
Text: as §1

IKK epsilon = biological target: T3, IKK epsilon (Homo sapiens, UniProt Q14164)
T3 sequence (Q14164 1-716): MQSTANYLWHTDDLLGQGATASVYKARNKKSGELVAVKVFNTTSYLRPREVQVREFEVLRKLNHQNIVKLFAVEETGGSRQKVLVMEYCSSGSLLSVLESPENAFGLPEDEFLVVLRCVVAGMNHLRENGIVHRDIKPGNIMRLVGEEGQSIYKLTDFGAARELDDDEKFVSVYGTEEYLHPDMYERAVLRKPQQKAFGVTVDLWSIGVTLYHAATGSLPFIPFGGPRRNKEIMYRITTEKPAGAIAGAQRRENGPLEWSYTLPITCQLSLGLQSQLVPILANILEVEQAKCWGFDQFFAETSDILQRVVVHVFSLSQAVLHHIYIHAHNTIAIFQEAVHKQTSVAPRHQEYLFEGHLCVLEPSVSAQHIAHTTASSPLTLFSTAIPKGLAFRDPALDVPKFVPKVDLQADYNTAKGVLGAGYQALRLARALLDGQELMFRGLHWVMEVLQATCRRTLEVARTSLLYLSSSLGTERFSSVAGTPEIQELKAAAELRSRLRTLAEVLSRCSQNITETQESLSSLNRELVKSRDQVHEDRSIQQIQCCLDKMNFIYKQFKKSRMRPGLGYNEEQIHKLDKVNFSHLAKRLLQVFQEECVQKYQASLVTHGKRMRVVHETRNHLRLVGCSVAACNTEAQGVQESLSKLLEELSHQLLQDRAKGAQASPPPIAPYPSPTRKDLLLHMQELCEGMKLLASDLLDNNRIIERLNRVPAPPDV
Text: as §1

PRK2 = PRK2 (Homo sapiens, UniProt Q16513)
PRK2, sequence (Q16513 whole entry): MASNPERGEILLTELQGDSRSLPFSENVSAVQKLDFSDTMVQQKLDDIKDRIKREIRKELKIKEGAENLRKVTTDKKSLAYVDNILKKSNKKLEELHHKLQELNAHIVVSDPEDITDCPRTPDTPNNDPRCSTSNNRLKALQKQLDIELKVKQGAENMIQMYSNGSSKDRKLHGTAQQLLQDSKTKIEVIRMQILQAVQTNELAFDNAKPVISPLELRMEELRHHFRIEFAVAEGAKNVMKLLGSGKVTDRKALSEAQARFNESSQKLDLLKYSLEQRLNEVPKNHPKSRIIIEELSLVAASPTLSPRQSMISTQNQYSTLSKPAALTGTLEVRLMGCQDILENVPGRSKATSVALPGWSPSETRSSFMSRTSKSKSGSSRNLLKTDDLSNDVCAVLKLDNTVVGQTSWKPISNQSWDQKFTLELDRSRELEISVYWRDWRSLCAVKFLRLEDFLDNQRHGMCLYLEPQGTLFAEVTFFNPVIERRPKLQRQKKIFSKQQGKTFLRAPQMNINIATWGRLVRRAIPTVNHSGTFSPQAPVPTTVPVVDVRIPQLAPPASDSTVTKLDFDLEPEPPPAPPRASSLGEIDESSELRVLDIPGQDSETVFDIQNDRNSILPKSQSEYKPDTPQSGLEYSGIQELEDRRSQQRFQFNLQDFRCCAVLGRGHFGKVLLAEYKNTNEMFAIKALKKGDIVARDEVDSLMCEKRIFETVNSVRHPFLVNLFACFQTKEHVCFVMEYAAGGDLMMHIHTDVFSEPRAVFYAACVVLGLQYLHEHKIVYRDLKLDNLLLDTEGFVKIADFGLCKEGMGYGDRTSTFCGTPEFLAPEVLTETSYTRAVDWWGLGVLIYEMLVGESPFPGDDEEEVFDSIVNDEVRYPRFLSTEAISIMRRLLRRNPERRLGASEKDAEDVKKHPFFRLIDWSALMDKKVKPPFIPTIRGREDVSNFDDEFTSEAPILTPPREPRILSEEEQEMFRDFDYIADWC
Text: as §1

MAPKAP-K2 = MAPKAP-K2 (Homo sapiens, UniProt P49137)
Text: as §1

JNK1 = JNK1 (Homo sapiens, UniProt P45983)
Text: as §1

RSK2 = RSK2 (Homo sapiens, UniProt P51812)
RSK2, sequence (P51812 whole entry): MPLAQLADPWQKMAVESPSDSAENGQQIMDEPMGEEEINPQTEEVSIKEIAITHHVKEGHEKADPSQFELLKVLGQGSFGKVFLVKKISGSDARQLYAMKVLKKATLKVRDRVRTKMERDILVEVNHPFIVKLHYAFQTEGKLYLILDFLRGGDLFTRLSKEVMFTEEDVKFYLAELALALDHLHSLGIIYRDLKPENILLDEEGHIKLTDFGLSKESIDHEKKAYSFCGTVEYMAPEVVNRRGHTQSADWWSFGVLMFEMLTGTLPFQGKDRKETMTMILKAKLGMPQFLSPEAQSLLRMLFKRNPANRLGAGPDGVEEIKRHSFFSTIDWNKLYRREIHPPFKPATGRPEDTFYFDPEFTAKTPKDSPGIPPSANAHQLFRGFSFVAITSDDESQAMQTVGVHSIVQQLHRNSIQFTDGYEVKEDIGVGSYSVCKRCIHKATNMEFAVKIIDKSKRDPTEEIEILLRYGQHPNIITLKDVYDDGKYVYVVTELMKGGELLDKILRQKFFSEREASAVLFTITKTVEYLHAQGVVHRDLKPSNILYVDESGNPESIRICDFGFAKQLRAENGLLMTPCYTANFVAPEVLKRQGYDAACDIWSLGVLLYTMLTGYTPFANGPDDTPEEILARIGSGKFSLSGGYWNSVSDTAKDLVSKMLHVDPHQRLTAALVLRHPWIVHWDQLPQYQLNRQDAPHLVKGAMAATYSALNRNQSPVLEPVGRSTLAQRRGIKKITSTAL
Text: as §1

MLK1, sequence (P80192 whole entry): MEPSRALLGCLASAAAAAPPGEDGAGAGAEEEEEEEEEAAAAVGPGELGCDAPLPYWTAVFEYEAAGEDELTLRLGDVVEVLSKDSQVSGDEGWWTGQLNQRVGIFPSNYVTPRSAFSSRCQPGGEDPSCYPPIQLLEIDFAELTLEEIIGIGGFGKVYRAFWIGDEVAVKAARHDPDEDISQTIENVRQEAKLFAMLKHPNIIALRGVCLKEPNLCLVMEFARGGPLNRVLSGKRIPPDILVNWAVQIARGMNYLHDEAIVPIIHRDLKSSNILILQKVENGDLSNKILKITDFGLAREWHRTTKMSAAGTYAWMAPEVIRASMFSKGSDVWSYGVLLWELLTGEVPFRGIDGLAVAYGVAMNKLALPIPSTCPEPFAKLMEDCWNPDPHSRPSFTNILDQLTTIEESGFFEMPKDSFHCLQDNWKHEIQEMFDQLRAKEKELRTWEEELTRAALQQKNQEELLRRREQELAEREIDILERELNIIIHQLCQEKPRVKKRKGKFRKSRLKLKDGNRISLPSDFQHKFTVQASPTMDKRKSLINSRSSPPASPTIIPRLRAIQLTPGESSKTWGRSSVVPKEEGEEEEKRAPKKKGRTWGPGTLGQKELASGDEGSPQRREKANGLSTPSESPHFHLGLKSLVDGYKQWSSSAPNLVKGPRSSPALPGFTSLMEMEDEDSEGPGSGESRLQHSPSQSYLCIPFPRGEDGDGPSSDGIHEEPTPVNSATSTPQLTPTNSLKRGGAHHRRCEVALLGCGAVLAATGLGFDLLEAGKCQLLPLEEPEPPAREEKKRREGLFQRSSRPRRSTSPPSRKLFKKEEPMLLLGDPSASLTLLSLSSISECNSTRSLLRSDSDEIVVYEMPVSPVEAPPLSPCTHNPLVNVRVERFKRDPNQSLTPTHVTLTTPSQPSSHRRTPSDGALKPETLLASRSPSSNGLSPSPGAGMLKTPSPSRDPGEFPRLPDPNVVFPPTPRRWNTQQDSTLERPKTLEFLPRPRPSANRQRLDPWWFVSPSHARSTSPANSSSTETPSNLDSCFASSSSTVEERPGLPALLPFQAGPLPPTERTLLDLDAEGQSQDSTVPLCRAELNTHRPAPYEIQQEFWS

| Compound | remaining activity at 1 µM (MLK1) | remaining activity at 1 µM (HIPK2) | remaining activity at 1 µM (p38 beta MAPK) | remaining activity at 1 µM (DAPK1) | remaining activity at 1 µM (MST2) | remaining activity at 1 µM (MAP4K3) | remaining activity at 1 µM (NEK6) | remaining activity at 1 µM (IKK epsilon) | remaining activity at 1 µM (PRK2) | remaining activity at 1 µM (MAPKAP-K2) | remaining activity at 1 µM (JNK1) | remaining activity at 1 µM (RSK2) | remaining activity at 1 µM (MLK1; 1 µM) | remaining activity at 1 µM (HIPK2; 1 µM) | remaining activity at 1 µM (p38 beta MAPK; 1 µM) | remaining activity at 1 µM (DAPK1; 1 µM) | remaining activity at 1 µM (MST2; 1 µM) | remaining activity at 1 µM (MAP4K3; 1 µM) | remaining activity at 1 µM (NEK6; 1 µM) | remaining activity at 1 µM (IKK epsilon; 1 µM) | further results |
| --- | --- | --- | --- | --- | --- | --- | --- | --- | --- | --- | --- | --- | --- | --- | --- | --- | --- | --- | --- | --- | --- |
| COc1ccc(Cl)c(S(=O)(=O)Nc2ccc(-c3nc(OC[C@H]4CNCCO4)c4c(C)n[nH]c4n3)cc2)c1 [290-R, reference compound] | 9% | 50% | 99% | 87% | 105% | 2% | 88% | 34% | 76% | 87% | 101% | 24% |  |  |  |  |  |  |  |  |  |
| Cc1ccc(F)c(S(=O)(=O)Nc2ccc(-c3nc(OC[C@H]4CNCCO4)c4cn[nH]c4n3)cc2)c1 [308-R, reference compound] | 16% | 47% | 116% | 91% | 86% | 8% | 91% | 26% | 82% | 83% | 112% | 24% |  |  |  |  |  |  |  |  |  |
| Cc1ccc(F)c(S(=O)(=O)Nc2ccc(-c3nc(OC[C@H]4CN(CCCCCCOCCOCCOCC(=O)N[C@H](C(=O)N5C[C@H](O)C[C@H]5C(=O)NCc5ccc(-c6scnc6C)cc5)C(C)(C)C)CCO4)c4cn[nH]c4n3)cc2)c1 [SGK3-PROTAC1] |  |  |  |  |  |  |  |  |  |  |  |  | 82% | 109% | 107% | 100% | 112% | 99% | 106% | 108% | remaining activity at 1 µM (PRK2; 1 µM): 105%; remaining activity at 1 µM (MAPKAP-K2; 1 µM): 86%; remaining activity at 1 µM (JNK1; 1 µM): 117%; remaining activity at 1 µM (RSK2; 1 µM): 120% |
| Cc1ccc(F)c(S(=O)(=O)Nc2ccc(-c3nc(OC[C@H]4CN(CCCCCCOCCOCCOCC(=O)N[C@H](C(=O)N5C[C@@H](O)C[C@H]5C(=O)NCc5ccc(-c6scnc6C)cc5)C(C)(C)C)CCO4)c4cn[nH]c4n3)cc2)c1 [cisSGK3-PROTAC1] |  |  |  |  |  |  |  |  |  |  |  |  | 94% | 100% | 112% | 108% | 100% | 95% | 111% | 99% | remaining activity at 1 µM (PRK2; 1 µM): 101%; remaining activity at 1 µM (MAPKAP-K2; 1 µM): 92%; remaining activity at 1 µM (JNK1; 1 µM): 119%; remaining activity at 1 µM (RSK2; 1 µM): 109% |
